Test results from PubChem BioAssay (NCI).
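Growth conditions: 96-well plates. Treatment: test compound, 48 hours, 5 concentrations. Analysis: linear interpolation between bracketing concentrations; unreached endpoints set to highest concentration. At the GI50, growth is halved. TGI is the concentration that stops growth completely.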

Key:
Assay in all cases: NCI-60 cell line screen, 48 h
[1] = system: BT-549 breast
[2] = system: HCC-2998 colon
[3] = system: HCT-15 colon
[4] = system: HS 578T breast
[5] = system: KM12 colon
[6] = system: NCI/ADR-RES ovarian
[7] = system: OVCAR-3 ovarian
[8] = system: SW-620 colon
[9] = system: UACC-62 melanoma
[10] = system: SK-MEL-5 melanoma

Compound `CC(C)N1CC2CN(Cc3ccccc3)CC(C1)C2=O` has a TGI [1] greater than 100 µM, a TGI [2] greater than 100 µM and a TGI [3] greater than 100 µM. It also gave a TGI [4] greater than 100 µM, a TGI [5] greater than 100 µM and a TGI [6] greater than 100 µM. For the same compound, the TGI [7] was greater than 100 µM, the TGI [8] was greater than 100 µM and the TGI [9] was greater than 100 µM.

With `COC1=CC(c2ccc[nH]2)=N/C1=C\c1[nH]c(C)c(CC(=O)OCc2ccccc2)c1CCC(=O)OCc1ccccc1` the GI50 [1] was 0.37 µM, the TGI [1] was 2.68 µM and the GI50 [3] was 0.313 µM. For the same compound, the TGI [3] was 1.18 µM, the GI50 [4] was 0.395 µM and the TGI [4] was 2.87 µM. For the same compound, the GI50 [5] was 0.367 µM, the TGI [5] was 2.26 µM and the GI50 [6] was 0.579 µM. The TGI [6] was 3.37 µM, the GI50 [7] was 0.363 µM and the TGI [7] was 1.46 µM. The GI50 [8] was 0.345 µM and the TGI [8] was 2.43 µM.

Compound `CCOC(=O)c1ccc2c(c1)Cc1cc([N+](=O)[O-])ccc1-2` has a TGI [1] of 94.2 µM, a TGI [3] greater than 100 µM and a TGI [4] greater than 100 µM. For the same compound, the TGI [5] was greater than 100 µM, the TGI [6] was 99.4 µM and the TGI [7] was greater than 100 µM. The TGI [10] was 44.2 µM, the TGI [8] was greater than 100 µM and the TGI [9] was greater than 100 µM.

`COc1cc(/C=C2\C[C@H]3[C@@H]4CC=C5C[C@@H](O)CC[C@]5(C)[C@H]4CC[C@]3(C)[C@H]2O)ccc1OCCN1CCCC1` gave a GI50 [2] of 10.1 µM, a TGI [2] of 20.6 µM and a GI50 [3] of 11.8 µM. It also gave a TGI [3] of 38 µM, a GI50 [4] of 11.1 µM and a TGI [4] of 25.1 µM. For the same compound, the GI50 [5] was 9.69 µM, the TGI [5] was 19.8 µM and the GI50 [6] was 12.6 µM. The TGI [6] was 34.7 µM, the GI50 [7] was 15.4 µM and the TGI [7] was 32 µM. The GI50 [10] was 9.58 µM, the TGI [10] was 23.6 µM and the GI50 [8] was 23.7 µM. For the same compound, the TGI [8] was greater than 50 µM, the GI50 [9] was 8.9 µM and the TGI [9] was 16.9 µM.

For `CO/C=C/C(=O)c1cc2cnc3c(=N)cc(NC(=O)C(C)C)c([nH]1)c23`, the GI50 [1] was 0.0236 µM, the TGI [1] was 0.258 µM and the GI50 [2] was 0.291 µM. The TGI [2] was 1.63 µM, the GI50 [3] was 0.0431 µM and the TGI [3] was 0.99 µM. The GI50 [4] was 0.0195 µM, the TGI [4] was 0.188 µM and the GI50 [5] was 0.196 µM. It also gave a TGI [5] of 1.86 µM, a GI50 [7] of 0.0418 µM and a TGI [7] of 0.353 µM. It also gave a GI50 [10] of 0.075 µM, a TGI [10] of 0.183 µM and a GI50 [8] of 0.0744 µM. The TGI [8] was 0.718 µM, the GI50 [9] was 0.0408 µM and the TGI [9] was 0.185 µM.

With `COC1OC(CO)C(O)C(OC(C)=O)C1NC(=O)N(CCCl)N=O` (stereo not drawn) the TGI [2] was greater than 100 µM, the TGI [5] was greater than 100 µM and the TGI [7] was greater than 100 µM. It also gave a TGI [10] greater than 100 µM, a TGI [8] greater than 100 µM and a TGI [9] greater than 100 µM.

`O=[N+]([O-])c1ccc(C2CC(c3ccccc3Cl)=Nc3ccccc3S2)cc1` (stereo not drawn) showed a TGI [2] of 54.2 µM, a TGI [3] of 10.9 µM and a TGI [5] of 13.4 µM. It also gave a TGI [7] of 34.2 µM, a TGI [10] of 12.8 µM and a TGI [8] of 4.78 µM. It also gave a TGI [9] of 16.1 µM.

Compound `Oc1ccc([Te]CCNCC[Te]c2ccc(O)cc2)cc1` has a TGI [2] of 38.2 µM, a TGI [5] greater than 100 µM and a TGI [10] of 26.4 µM. The TGI [8] was greater than 100 µM and the TGI [9] was 45.8 µM.

In the case of `CCCCCCCCOCC(O)COC(C)C` (stereo not drawn), the TGI [2] is reported as 58.3 µM, the TGI [3] is reported as greater than 100 µM and the TGI [7] is reported as 32.9 µM. For the same compound, the TGI [10] was greater than 100 µM, the TGI [8] was greater than 100 µM and the TGI [9] was greater than 100 µM.

For `Cc1cc([N+](=O)[O-])ccc1NC(=O)C(=O)C(C(=O)c1ccccc1-c1ccccc1)C1OC(=O)c2ccccc21` (stereo not drawn), the TGI [2] was 29.1 µM, the TGI [3] was 36.8 µM and the TGI [5] was 32.5 µM. For the same compound, the TGI [10] was 28.7 µM, the TGI [8] was 36.6 µM and the TGI [9] was 13.5 µM.

`N.N.NCCCCCN.O=C([O-])CCl.O=C([O-])CCl.O=C([O-])CCl.O=C([O-])CCl.[Pt+4].[Pt+4]` showed a GI50 [2] of 11.6 µM, a TGI [2] of 28 µM and a GI50 [3] of 31.8 µM. For the same compound, the TGI [3] was greater than 100 µM, the GI50 [5] was 20.9 µM and the TGI [5] was greater than 100 µM. For the same compound, the GI50 [7] was 17 µM, the TGI [7] was 49.2 µM and the GI50 [10] was 4.68 µM. It also gave a TGI [10] of 18.3 µM, a GI50 [8] of 4.58 µM and a TGI [8] greater than 100 µM. The GI50 [9] was 0.406 µM and the TGI [9] was 53.9 µM.

With `CN1C(=O)CCC2[C@@H]3CC=C4C[C@@H](O)CC[C@]4(C)C3CC[C@@]21C` (stereo partly drawn) the TGI [2] was greater than 100 µM, the TGI [3] was greater than 100 µM and the TGI [5] was greater than 100 µM. It also gave a TGI [7] greater than 100 µM, a TGI [10] of 50.3 µM and a TGI [8] greater than 100 µM. It also gave a TGI [9] greater than 100 µM.

In the case of `O=c1cc(-c2ccccc2)oc2ccc(OC/C(=N/O)c3ccccc3)cc12`, the GI50 [1] is reported as 1.46 µM, the TGI [1] is reported as 9.01 µM and the GI50 [2] is reported as 11 µM. It also gave a TGI [2] greater than 50 µM, a GI50 [3] of 2.19 µM and a TGI [3] greater than 50 µM. For the same compound, the GI50 [5] was 1.95 µM, the TGI [5] was greater than 50 µM and the GI50 [6] was 3.3 µM. It also gave a TGI [6] greater than 50 µM, a GI50 [7] of 1.23 µM and a TGI [7] of 3.93 µM. For the same compound, the GI50 [10] was 1.82 µM, the TGI [10] was 11.7 µM and the GI50 [8] was 1.74 µM. It also gave a TGI [8] greater than 50 µM, a GI50 [9] of 2.48 µM and a TGI [9] greater than 50 µM.

`C[C@]12CCc3nc(Nc4cccc(O)c4)sc3C1=CC[C@@H]1[C@@H]2CC[C@]2(C)/C(=N\NC(N)=S)CC[C@@H]12` showed a GI50 [1] of 1.15 µM, a TGI [1] of 3.97 µM and a GI50 [2] of 1.86 µM. It also gave a TGI [2] of 3.49 µM, a GI50 [3] of 1.15 µM and a TGI [3] of 2.64 µM. It also gave a GI50 [4] of 0.843 µM, a GI50 [6] of 3.07 µM and a TGI [6] greater than 100 µM. The GI50 [7] was 1.4 µM, the TGI [7] was 2.87 µM and the GI50 [10] was 1.8 µM. It also gave a TGI [10] of 3.63 µM, a GI50 [8] of 1.91 µM and a TGI [8] of 3.8 µM. The GI50 [9] was 2.01 µM and the TGI [9] was 4.46 µM.

`COC(=O)C1=Cc2cc(OC)c(OC)c(OC)c2[C@H](c2cc(OC)c(OC)c(OC)c2)C1C(=O)OC` (stereo partly drawn) showed a TGI [2] greater than 100 µM, a TGI [3] greater than 100 µM and a TGI [5] greater than 100 µM. It also gave a TGI [7] greater than 100 µM, a TGI [10] greater than 100 µM and a TGI [8] greater than 100 µM. For the same compound, the TGI [9] was greater than 100 µM.

`Cc1ccc(S(=O)(=O)c2ccc(NC(=O)SCCC(=O)O)cc2)cc1` showed a TGI [2] greater than 100 µM, a TGI [3] greater than 100 µM and a TGI [5] greater than 100 µM. For the same compound, the TGI [7] was greater than 100 µM, the TGI [8] was greater than 100 µM and the TGI [9] was greater than 100 µM.

`O=C(C=C1SCCS1)/C=C\c1ccc(Cl)cc1` gave a TGI [2] of 84.1 µM, a TGI [5] greater than 100 µM and a TGI [7] greater than 100 µM. The TGI [10] was greater than 100 µM, the TGI [8] was greater than 100 µM and the TGI [9] was greater than 100 µM.

Compound `Cc1ccc(Cl)cc1Nc1nc(C(F)(F)F)ccc1C(=O)N/N=C/c1cccnc1` has a GI50 [2] of 2.03 µM, a TGI [2] of 11.1 µM and a GI50 [3] of 0.693 µM. The TGI [3] was 13.7 µM, the GI50 [4] was 4.05 µM and the TGI [4] was 18.5 µM. The GI50 [5] was 3.19 µM, the TGI [5] was 11.8 µM and the GI50 [6] was 3.21 µM. It also gave a TGI [6] of 20.3 µM, a GI50 [7] of 2.45 µM and a TGI [7] of 14.3 µM. For the same compound, the GI50 [10] was 2.5 µM, the TGI [10] was 10.3 µM and the GI50 [8] was 3.32 µM. For the same compound, the TGI [8] was 14.9 µM, the GI50 [9] was 3.25 µM and the TGI [9] was 13.7 µM.

`COc1c(C)cc(O)cc1C=O` showed a TGI [2] greater than 100 µM, a TGI [3] greater than 100 µM and a TGI [5] greater than 100 µM. It also gave a TGI [7] greater than 100 µM, a TGI [10] greater than 100 µM and a TGI [8] greater than 100 µM. It also gave a TGI [9] greater than 100 µM.
